In this experiment the target is Androgen receptor (Mus musculus) (UniProt P19091). The experiment can be described thus: Antagonist activity at wild type AR expressed in mouse SC-3 cells assessed as inhibition of 1 nM DHT-induced cell proliferation after 3 days by WST-8 assay.
Androgen receptor (Mus musculus), sequence (P19091 whole entry, looked up): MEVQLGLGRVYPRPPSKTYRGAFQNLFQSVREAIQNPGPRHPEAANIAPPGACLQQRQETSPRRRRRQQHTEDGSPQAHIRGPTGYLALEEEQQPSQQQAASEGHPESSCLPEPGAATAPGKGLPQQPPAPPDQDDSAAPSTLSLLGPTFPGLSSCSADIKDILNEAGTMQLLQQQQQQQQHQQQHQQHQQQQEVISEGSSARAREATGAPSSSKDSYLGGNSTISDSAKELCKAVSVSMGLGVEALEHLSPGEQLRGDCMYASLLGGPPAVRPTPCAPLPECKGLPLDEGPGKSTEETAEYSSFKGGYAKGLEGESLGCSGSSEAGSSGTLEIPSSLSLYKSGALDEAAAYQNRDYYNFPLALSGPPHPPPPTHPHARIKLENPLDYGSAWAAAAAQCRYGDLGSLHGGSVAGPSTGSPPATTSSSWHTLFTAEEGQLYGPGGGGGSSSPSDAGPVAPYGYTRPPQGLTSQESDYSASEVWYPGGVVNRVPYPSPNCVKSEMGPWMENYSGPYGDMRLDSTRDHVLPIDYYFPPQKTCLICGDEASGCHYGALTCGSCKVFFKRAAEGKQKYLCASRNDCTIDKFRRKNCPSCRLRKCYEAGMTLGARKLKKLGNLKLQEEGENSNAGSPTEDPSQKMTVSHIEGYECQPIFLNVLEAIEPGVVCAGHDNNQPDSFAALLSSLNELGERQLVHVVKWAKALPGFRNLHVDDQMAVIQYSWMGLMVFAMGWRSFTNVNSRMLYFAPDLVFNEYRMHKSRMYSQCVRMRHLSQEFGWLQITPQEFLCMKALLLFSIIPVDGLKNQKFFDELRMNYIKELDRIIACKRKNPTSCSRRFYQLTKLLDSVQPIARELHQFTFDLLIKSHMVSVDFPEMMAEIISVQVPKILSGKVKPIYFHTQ
Regarding `O=[N+]([O-])c1ccc(Cc2nnc(O)c3ccccc23)cc1`, the IC50 entry is on record as “Not Active”.
Regarding `Nc1ccc(Cc2n[nH]c(=O)c3ccccc23)cc1`, the IC50 result is “Not Active”.
As to `CC(=O)Nc1ccc(Cc2n[nH]c(=O)c3ccccc23)cc1`, the IC50 result is “Not Active”.
The entry for `O=C(Nc1ccc(Cc2n[nH]c(=O)c3ccccc23)cc1)C(F)(F)F` is “Not Active”.
For the molecule `CS(=O)(=O)Nc1ccc(Cc2n[nH]c(=O)c3ccccc23)cc1`, the IC50 entry was “Not Active”.
On to `CCN(CC)c1ccc(Cc2n[nH]c(=O)c3ccccc23)cc1`, for which the IC50 entry is “Not Active”.
With `CCNc1ccc(Cc2n[nH]c(=O)c3ccccc23)cc1`, the IC50 result is recorded as “Not Active”.
The entry for `CN(C)c1ccc(Cc2n[nH]c(=O)c3ccccc23)cc1` is “Not Active”; for `CNc1ccc(Cc2n[nH]c(=O)c3ccccc23)cc1` it is “Not Active”; for `O=C(O)c1ccccc1Cc1n[nH]c(=O)c2ccccc12` it is “Not Active”.
For `CC(=O)Nc1ccccc1Cc1n[nH]c(=O)c2ccccc12`, the IC50 entry is listed as “Not Active”.
For the molecule `CS(=O)(=O)Nc1ccccc1Cc1n[nH]c(=O)c2ccccc12`, the IC50 entry is “Not Active”.

These data come from ChEMBL document CHEMBL3621051, “Design and synthesis of 4-benzyl-1-(2H)-phthalazinone derivatives as novel androgen receptor antagonists” (Eur J Med Chem, 2015).
